Measured values published in publication PMC12643509, “High-throughput screens identify genotype-specific therapeutics for channelopathies” (JCI Insight, 2025).
Several values for one entry are separate records, joined by “and”; a condition that tells them apart may be missing. Identical values can stand only once.

Molecular target: WT Kv11.1 (Homo sapiens, UniProt Q12809)
Experiment: Whole-cell patch-clamp electrophysiology, drug in bath solution, WT
Format: cell-based
Parameters: expressed in transfected cells; Activation tail currents / Steady-state currents / Time constants of activation (τ): unit not given here
Settings: for Figure 5B value per cell vs Time / Figure 4B value per cell vs Voltage (mV) / Figure 4D value per cell vs Voltage (mV) / Figure 5E value per cell vs Voltage (mV) / Figure 5F value per cell vs Voltage (mV): individual replicates; for peak tail currents (I-V relationship) / Steady-state currents / Activation tail currents: WT, individual cells; for peak tail currents (I-V relationship): evacetrapib 15 μmol/L in bath; for Steady-state currents / Activation tail currents: evacetrapib 15 μmol/L; for Activation tail currents: tail at –40 mV
From the text: Peak stea dy-sta te current was
Tail current was fit with a […]

Chain of WT Kv11.1 (Q12809 whole entry): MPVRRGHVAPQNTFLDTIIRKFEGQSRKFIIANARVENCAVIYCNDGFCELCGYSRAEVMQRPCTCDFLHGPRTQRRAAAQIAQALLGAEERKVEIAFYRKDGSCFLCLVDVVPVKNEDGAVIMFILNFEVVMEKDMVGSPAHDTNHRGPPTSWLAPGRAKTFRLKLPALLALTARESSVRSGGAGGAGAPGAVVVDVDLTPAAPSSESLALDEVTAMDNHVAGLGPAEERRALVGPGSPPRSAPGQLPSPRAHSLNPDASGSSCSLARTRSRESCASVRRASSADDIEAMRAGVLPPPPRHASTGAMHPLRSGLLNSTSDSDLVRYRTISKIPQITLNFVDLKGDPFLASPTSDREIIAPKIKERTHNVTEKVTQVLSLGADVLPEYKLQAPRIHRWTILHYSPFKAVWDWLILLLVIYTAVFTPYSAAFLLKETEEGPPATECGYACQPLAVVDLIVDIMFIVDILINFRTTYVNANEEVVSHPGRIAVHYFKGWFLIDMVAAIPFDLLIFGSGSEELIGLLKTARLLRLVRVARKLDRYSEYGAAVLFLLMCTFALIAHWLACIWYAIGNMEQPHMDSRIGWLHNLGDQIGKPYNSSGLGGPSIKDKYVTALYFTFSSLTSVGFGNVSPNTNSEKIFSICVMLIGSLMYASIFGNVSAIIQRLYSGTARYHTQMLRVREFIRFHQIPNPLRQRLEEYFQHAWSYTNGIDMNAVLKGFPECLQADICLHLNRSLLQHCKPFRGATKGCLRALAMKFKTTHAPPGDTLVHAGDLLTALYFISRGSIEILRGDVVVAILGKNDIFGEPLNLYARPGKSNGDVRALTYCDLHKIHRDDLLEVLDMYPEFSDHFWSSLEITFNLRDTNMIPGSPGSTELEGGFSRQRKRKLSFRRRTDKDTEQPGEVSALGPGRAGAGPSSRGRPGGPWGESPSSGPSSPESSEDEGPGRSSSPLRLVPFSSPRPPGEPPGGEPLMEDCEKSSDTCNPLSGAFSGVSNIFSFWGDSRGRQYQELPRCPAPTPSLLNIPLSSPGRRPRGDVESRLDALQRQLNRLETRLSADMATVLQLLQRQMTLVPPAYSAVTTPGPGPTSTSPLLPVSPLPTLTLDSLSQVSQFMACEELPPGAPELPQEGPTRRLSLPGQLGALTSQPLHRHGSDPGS

Cc1cc(C)c2c(c1)[C@@H](N(Cc1cc(C(F)(F)F)cc(C(F)(F)F)c1)c1nnn(C)n1)CCCN2C[C@H]1CC[C@H](C(=O)O)CC1 [Evacetrapib, evacetrapib]
Figure 5B value per cell vs Time (Time 480): -0.4681 and -0.2647 and -0.2507 and -0.1972 and -0.3239 and -0.2271
Figure 5B value per cell vs Time (Time 540): -0.5284 and -0.3222 and -0.285 and -0.2169 and -0.3896 and -0.2816
Figure 5B value per cell vs Time (Time 600): -0.588 and -0.3629 and -0.3374 and -0.2423 and -0.4551 and -0.3284
Figure 5B value per cell vs Time (Time 660): -0.6518 and -0.4077 and -0.3785 and -0.3017 and -0.5218 and -0.3806
Figure 5B value per cell vs Time (Time 720): -0.7017 and -0.4517 and -0.4377 and -0.3271 and -0.5811 and -0.4215
Figure 5B value per cell vs Time (Time 780): -0.7446 and -0.5087 and -0.4704 and -0.3371 and -0.6312 and -0.4754
Figure 5B value per cell vs Time (Time 840): -0.7775 and -0.545 and -0.522 and -0.4074 and -0.6797 and -0.5211
Figure 5B value per cell vs Time (Time 900): -0.7865 and -0.5874 and -0.5479 and -0.435 and -0.735 and -0.566
Figure 5B value per cell vs Time (Time 960): -0.833 and -0.6254 and -0.582 and -0.4724 and -0.7754 and -0.6113
Figure 5B value per cell vs Time (Time 1020): -0.8444 and -0.6633 and -0.6057 and -0.489 and -0.8272 and -0.6494
Figure 5B value per cell vs Time (Time 1080): -0.8739 and -0.6879 and -0.652 and -0.5518 and -0.8519 and -0.6869
Figure 5B value per cell vs Time (Time 1140): -0.894 and -0.7265 and -0.6824 and -0.5792 and -0.8903 and -0.723
Figure 5B value per cell vs Time (Time 1200): -0.8957 and -0.756 and -0.7067 and -0.6036 and -0.9115 and -0.75
Figure 5B value per cell vs Time (Time 1260): -0.9162 and -0.7845 and -0.7409 and -0.6519 and -0.9274 and -0.7716
Figure 5B value per cell vs Time (Time 1320): -0.9293 and -0.808 and -0.7659 and -0.6564 and -0.944 and -0.7966
Figure 5B value per cell vs Time (Time 1380): -0.9321 and -0.8297 and -0.7811 and -0.6653 and -0.9508 and -0.8202
Figure 5B value per cell vs Time (Time 1440): -0.9456 and -0.8515 and -0.7941 and -0.6916
Figure 4B value per cell vs Voltage (mV) (Voltage 0 mV): 11.8726 and 11.4943 and 10.3496 and 10.9094 and 10.8921
Figure 4B value per cell vs Voltage (mV) (Voltage 10 mV): 8.653 and 8.735 and 8.112 and 8.594 and 8.227
Figure 4B value per cell vs Voltage (mV) (Voltage 20 mV): 6.045 and 6.561 and 6.2 and 6.536 and 6.09
Figure 4B value per cell vs Voltage (mV) (Voltage 30 mV): 4.263 and 4.813 and 4.589 (2×) and 4.855
Figure 4B value per cell vs Voltage (mV) (Voltage 40 mV): 2.999 and 3.548 and 3.503 and 3.618 and 3.396
Figure 4B value per cell vs Voltage (mV) (Voltage 50 mV): 2.259 and 2.688 and 2.663 and 2.777 and 2.566
Figure 4B value per cell vs Voltage (mV) (Voltage 60 mV): 1.878 and 2.068 and 2.124 and 2.21 and 2.021
Figure 4B value per cell vs Voltage (mV) (Voltage 70 mV): 1.522 and 1.6561 and 1.697 and 1.79 and 1.58
peak tail currents (I-V relationship) (Voltage (mV) 0): 108.731 and 68.2281 and 79.8578 and 105.108 and 89.4676 and 63.9693 and 63.3317 and 23.2206 and 38.9777 and 18.6844
Steady-state currents (Voltage (mV) 0): 40.4395 and 14.6593 and 23.6253 and 10.7424 and 12.2745 and 25.059 and 13.3557 and 25.8785 and 25.7792 and 48.7186 and 28.6917
Activation tail currents (Voltage (mV) 0): 45.6244 and 25.343 and 54.0146 and 31.4245 and 29.2272 and 68.7383 and 34.1486 and 20.8925 and 71.2996 and 102.774 and 57.7045
peak tail currents (I-V relationship) (Voltage (mV) 10): 93.1489 and 60.1622 and 69.939 and 86.7676 and 75.6735 and 55.3784 and 40.7784 and 17.5354 and 25.5833 and 12.8315
Steady-state currents (Voltage (mV) 10): 32.8981 and 20.4014 and 36.7833 and 17.1944 and 20.5841 and 27.8135 and 21.9511 and 36.7956 and 27.3543 and 47.5782 and 26.4245
Activation tail currents (Voltage (mV) 10): 61.4581 and 36.6943 and 61.1695 and 48.7606 and 43.5182 and 102.425 and 47.3892 and 33.802 and 80.7764 and 116.916 and 59.6106
peak tail currents (I-V relationship) (Voltage (mV) 20): 76.997 and 51.8869 and 61.5888 and 71.295 and 62.4196 and 45.36 and 26.1159 and 13.7511 and 17.275 and 9.104
Steady-state currents (Voltage (mV) 20): 22.6993 and 18.9152 and 37.889 and 17.2911 and 21.9338 and 23.7154 and 29.6022 and 43.1925 and 20.5026 and 37.4057 and 19.7431
Activation tail currents (Voltage (mV) 20): 71.9787 and 45.4439 and 63.7225 and 61.2461 and 53.0993 and 122.955 and 54.7189 and 46.6431 and 82.6403 and 123.849 and 59.1491
peak tail currents (I-V relationship) (Voltage (mV) 30): 61.9853 and 42.564 and 49.6862 and 55.8776 and 49.9256 and 37.5621 and 17.4891 and 11.2899 and 12.2347 and 6.843
Steady-state currents (Voltage (mV) 30): 13.8134 and 15.2335 and 30.8124 and 15.3878 and 19.0656 and 16.8628 and 32.7435 and 42.003 and 14.0184 and 26.2752 and 15.6099
Activation tail currents (Voltage (mV) 30): 78.4549 and 49.9729 and 64.1927 and 68.2058 and 57.9705 and 130.879 and 57.8601 and 56.5419 and 81.1964 and 126.769 and 58.6074
peak tail currents (I-V relationship) (Voltage (mV) 40): 49.0637 and 36.1043 and 40.7824 and 44.6525 and 42.1084 and 30.3986 and 12.7193 and 9.659 and 9.23 and 5.4472
Steady-state currents (Voltage (mV) 40): 8.152
Activation tail currents (Voltage (mV) 40): 80.9925 and 51.9387 and 63.2186 and 69.4712 and 59.5512 and 133.68 and 59.6841 and 61.1492 and 78.5713 and 128.32 and 57.9252
peak tail currents (I-V relationship) (Voltage (mV) -10): 121.614 and 76.2939 and 89.915 and 120.029 and 102.147 and 69.7054 and 87.5927 and 30.4321 and 56.9661 and 25.473
Steady-state currents (Voltage (mV) -10): 39.4793 and 7.634 and 11.4994 and 5.42 and 5.3991 and 14.8809 and 6.707 and 15.12 and 14.6222 and 35.1249 and 21.6894
peak tail currents (I-V relationship) (Voltage (mV) -20): 131.419 and 84.709 and 100.756 and 135.254 and 114.81 and 74.7542 and 102.167 and 37.4476 and 77.7339 and 32.9646
Steady-state currents (Voltage (mV) -20): 32.9524 and 3.6817 and 4.46 and 2.8711 and 2.362 and 6.4831 and 3.43 and 7.428 and 4.804 and 18.1098 and 9.611
Activation tail currents (Voltage (mV) -20): 15.0143
peak tail currents (I-V relationship) (Voltage (mV) -30): 132.826 and 89.7021 and 107.215 and 142.287 and 124.198 and 74.8335 and 106.966 and 44.1713 and 97.481 and 39.1658
Steady-state currents (Voltage (mV) -30): 26.2905 and 2.297 and 2.248 and 2.097 and 1.35 and 2.687 and 2.39 and 4.071 and 1.181 and 8.895 and 2.9695
Activation tail currents (Voltage (mV) -30): 7.534 and 3.411 and 6.987 and 3.037 and 3.42 and 5.381 and 4.729 and 3.695 and 5.67 and 20.6644 and 10.955
peak tail currents (I-V relationship) (Voltage (mV) -40): 123.894 and 91.9717 and 106.938 and 138.26 and 129.161 and 68.3308 and 100.665 and 47.0658 and 110.15 and 41.9127
Steady-state currents (Voltage (mV) -40): 22.4974 and 1.925 and 1.695 and 1.5162 and 1.5185 and 1.713 and 2.12 and 2.908 and -0.105 and 5.52 and 1.124
Activation tail currents (Voltage (mV) -40): 4.388 and 2.505 and 3.124 and 2.236 and 2.355 and 2.6537 and 2.736 and 2.76 and 1.5226 and 9.99 and 3.792
peak tail currents (I-V relationship) (Voltage (mV) -50): 102.384 and 84.1154 and 96.6044 and 116.609 and 127.372 and 55.6691 and 86.621 and 46.497 and 109.939 and 41.3172
Steady-state currents (Voltage (mV) -50): 1.688 and 1.554 and 1.143 and 1.161 and 1.645 and 1.646 and 2.0814 and 1.85 and -0.735 and 4.1055 and 0.8628
Activation tail currents (Voltage (mV) -50): 3.7007 and 2.582 and 2.251 and 2.025 and 2.032 and 1.953 and 2.466 and 2.6 and 0.4988 and 7.116 and 1.746
Activation tail currents (Voltage (mV) -60): 4.229 and 3.296 and 2.251 and 1.856 and 2 and 1.917 and 2.331 and 2.577 and 0.3413 and 6.751 and 1.786
Figure 4B value per cell vs Voltage (mV) (Voltage -10 mV): 14.8044 and 13.7126 and 12.9375 and 13.3319 and 13.3961
Figure 4B value per cell vs Voltage (mV) (Voltage -20 mV): 17.0235 and 15.2047 and 14.605 and 15.0846 and 15.5938
Figure 4D value per cell vs Voltage (mV) (Voltage -30 mV): 15.7269 and 18.6316 and 19.1074 and 18.8344 and 16.9058 and 17.0433 and 17.3545
Figure 4D value per cell vs Voltage (mV) (Voltage -40 mV): 16.5636 and 18.432 and 19.3043 and 18.0397 and 17.6 and 17.7987 and 17.7833 and 17.6688
Figure 4D value per cell vs Voltage (mV) (Voltage -50 mV): 17.1571 and 17.6888 and 17.131 and 15.567 and 16.0065 and 16.8291 and 17.2705 and 17.4541
Figure 5E value per cell vs Voltage (mV) (Voltage -50 mV): 902.031 and 870.108 and 1400.85 and 879.311 and 1017 and 1248.9
Figure 5F value per cell vs Voltage (mV) (Voltage -50 mV): 6388.9 and 7989.38 and 5622.96
Figure 4D value per cell vs Voltage (mV) (Voltage -60 mV): 15.2329 and 15.5388 and 14.7818 and 13.5682 and 12.8587 and 15.0819 and 14.9385 and 15.3669
Figure 5E value per cell vs Voltage (mV) (Voltage -60 mV): 1032.08 and 966.812 and 405
Figure 5F value per cell vs Voltage (mV) (Voltage -60 mV): 3804.89 and 9449.49 and 8793.8 and 3687.69 and 9196.29
Figure 4D value per cell vs Voltage (mV) (Voltage -70 mV): 13.1624 and 13.1509 and 12.2005 and 10.7217 and 10.4496 and 12.0627 and 12.9211 and 13.7327
